Results from patent US11767322B2 (BRISTOL-MYERS SQUIBB COMPANY, priority 2020, dated 2023).
Where two headings read alike, the source gives them in different places.

What was measured:
[1] = biological target: T1, His-GST-TVMV-hRIPK1(1-324) (Homo sapiens, UniProt Q13546); test: biochemical; assay type: binding; conditions: HTRF probe displacement, 1 h at rt; read-out: RIPK1 IC50
T1 construct: The coding region of human RIPK1(1-324) flanked by NdeI site at 5′ end; made in house; host or cells: Spodoptera frugiperda Sf9 insect cells (baculovirus, Bac-to-Bac)
T1 sequence (Q13546 1-324): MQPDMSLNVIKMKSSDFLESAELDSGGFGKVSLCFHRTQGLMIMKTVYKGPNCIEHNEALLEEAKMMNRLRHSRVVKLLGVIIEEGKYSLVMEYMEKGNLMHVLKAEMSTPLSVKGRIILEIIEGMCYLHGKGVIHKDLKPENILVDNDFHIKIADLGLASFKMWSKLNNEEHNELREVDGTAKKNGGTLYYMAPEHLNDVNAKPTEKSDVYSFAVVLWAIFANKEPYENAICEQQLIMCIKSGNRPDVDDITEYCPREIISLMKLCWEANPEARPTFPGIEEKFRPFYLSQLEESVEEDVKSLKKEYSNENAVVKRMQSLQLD

[2] = tested on: MLKL phosphorylation in HT29-L23 human colorectal adenocarcinoma cells; test: MLKL phosphorylation high-content assay; assay type: cell-based; conditions: 6 h, necroptosis induced with TNFα, SMAC mimetic and Z-VAD, 6 h, maximal inhibition defined by Nec1s
[3] = biological target: GST-tagged PIK3Cδ in complex with PIK3R1 (Homo sapiens, UniProt O00329); test: PI3Kδ HTRF binding assay; conditions: read-out: PIK3CD IC50
Chain of GST-tagged PIK3Cδ in complex with PIK3R1 (O00329 whole entry): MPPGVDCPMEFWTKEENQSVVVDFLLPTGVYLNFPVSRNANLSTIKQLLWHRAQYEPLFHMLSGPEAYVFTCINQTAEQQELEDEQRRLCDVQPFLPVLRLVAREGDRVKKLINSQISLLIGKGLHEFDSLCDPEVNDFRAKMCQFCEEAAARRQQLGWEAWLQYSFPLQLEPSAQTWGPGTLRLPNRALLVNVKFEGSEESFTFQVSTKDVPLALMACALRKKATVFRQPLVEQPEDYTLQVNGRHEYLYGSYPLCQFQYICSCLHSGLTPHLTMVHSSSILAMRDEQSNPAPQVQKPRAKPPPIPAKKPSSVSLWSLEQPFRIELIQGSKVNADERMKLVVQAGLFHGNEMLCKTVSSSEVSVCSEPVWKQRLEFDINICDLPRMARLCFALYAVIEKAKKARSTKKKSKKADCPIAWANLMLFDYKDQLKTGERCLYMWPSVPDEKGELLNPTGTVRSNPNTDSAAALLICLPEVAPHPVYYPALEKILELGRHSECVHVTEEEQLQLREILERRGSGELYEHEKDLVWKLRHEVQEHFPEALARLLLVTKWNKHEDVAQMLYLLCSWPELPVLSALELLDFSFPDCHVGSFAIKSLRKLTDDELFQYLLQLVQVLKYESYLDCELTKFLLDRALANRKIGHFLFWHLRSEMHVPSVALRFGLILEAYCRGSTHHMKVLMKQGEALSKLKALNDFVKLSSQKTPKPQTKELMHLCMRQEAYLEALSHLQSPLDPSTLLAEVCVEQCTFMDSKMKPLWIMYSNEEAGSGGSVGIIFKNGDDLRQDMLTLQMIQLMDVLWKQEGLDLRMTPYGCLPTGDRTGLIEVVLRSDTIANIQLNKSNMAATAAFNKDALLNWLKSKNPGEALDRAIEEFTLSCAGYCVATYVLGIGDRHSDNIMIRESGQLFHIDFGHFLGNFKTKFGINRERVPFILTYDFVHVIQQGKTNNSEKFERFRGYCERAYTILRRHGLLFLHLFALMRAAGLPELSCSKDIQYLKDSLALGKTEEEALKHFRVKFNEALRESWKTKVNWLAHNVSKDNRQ
Chain of GST-tagged PIK3Cδ in complex with PIK3R1 (P27986 whole entry partner): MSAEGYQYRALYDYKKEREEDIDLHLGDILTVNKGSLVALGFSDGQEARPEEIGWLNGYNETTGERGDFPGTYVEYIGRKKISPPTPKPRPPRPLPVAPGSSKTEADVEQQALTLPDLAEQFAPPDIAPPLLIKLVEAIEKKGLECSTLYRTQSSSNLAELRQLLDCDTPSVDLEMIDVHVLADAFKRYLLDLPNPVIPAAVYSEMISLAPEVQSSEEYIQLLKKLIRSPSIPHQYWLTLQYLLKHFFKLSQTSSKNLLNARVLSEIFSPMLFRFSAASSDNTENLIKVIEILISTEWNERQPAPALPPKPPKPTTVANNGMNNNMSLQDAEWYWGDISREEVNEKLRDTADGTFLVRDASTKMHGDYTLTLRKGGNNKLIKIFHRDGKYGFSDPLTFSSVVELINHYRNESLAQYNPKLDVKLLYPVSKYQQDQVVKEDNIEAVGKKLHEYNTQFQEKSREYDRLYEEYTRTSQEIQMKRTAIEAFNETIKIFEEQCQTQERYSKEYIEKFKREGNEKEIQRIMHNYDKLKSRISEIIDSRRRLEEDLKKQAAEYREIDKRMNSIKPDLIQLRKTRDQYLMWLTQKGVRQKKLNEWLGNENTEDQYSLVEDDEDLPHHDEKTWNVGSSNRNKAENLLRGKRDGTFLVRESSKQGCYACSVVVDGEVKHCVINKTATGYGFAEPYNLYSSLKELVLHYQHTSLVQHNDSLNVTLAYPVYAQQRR

Molecule | IC50 [1] | IC50 ([2]; Homo sapiens, read-out: pMLKL IC50, HT29-L23 cells) | IC50 ([3]; HTRF probe displacement, 1 h at rt) | IC50 ([2]; HT29-L23 cells, read-out: pMLKL IC50) | IC50 [3]
Nc1nc2cc(-c3ccc(C(F)F)c(C(=O)NCC(F)(F)[C@@H](O)c4ccc(F)cc4)c3F)ccn2n1 [Example 295, (S)-3-(2-amino-[1,2,4]triazolo[1,5-a]pyridin-7-yl)-N-(2,2-difluoro-3-(4-fluorophenyl)-3-hydroxypropyl)-6-(difluoromethyl)-2-fluorobenzamide] | 3.3 nM | 1.4 nM | > 15000 nM | – | –
(S)-3-(2-amino-[1,2,4]triazolo[1,5-a]pyridin-7-yl)-6-cyclopropyl-N-(2,2-difluoro-3-(4-fluorophenyl)-3-hydroxypropyl)-2-fluorobenzamide [Example 304] | 4.8 nM | – | – | 2.8 nM | > 15000 nM
